# From ChEMBL document CHEMBL4706515, “Discovery of new [1,2,4] Triazolo[1,5-a]Pyrimidine derivatives that Kill gastric cancer cells via the mitochondria pathway” (Eur J Med Chem, 2020)
# The source made the active and inactive calls. The calls are words filed in the database; no cut-off is given here.
# Tests used:
# MGC-803 [1] = experiment: Antiproliferative activity against human MGC-803 cells assessed as inhibition of cell growth at 10 uM measured after 72 hrs by SRB assay relative to control; assay type: functional
# MGC-803 [2] = experiment: Antiproliferative activity against human MGC-803 cells assessed as inhibition of cell growth at measured after 72 hrs by SRB assay; assay type: functional
# HGC-27 = experiment: Antiproliferative activity against human HGC-27 cells assessed as inhibition of cell growth at measured after 72 hrs by SRB assay; assay type: functional
# SGC-7901 = experiment: Antiproliferative activity against human SGC-7901 cells assessed as inhibition of cell growth at measured after 72 hrs by SRB assay; assay type: functional
# BGC-823 = experiment: Antiproliferative activity against human BGC-823 cells assessed as inhibition of cell growth at measured after 72 hrs by SRB assay; assay type: functional
# MKN-45 = experiment: Antiproliferative activity against human MKN-45 cells assessed as inhibition of cell growth at measured after 72 hrs by SRB assay; assay type: functional
# GES1 = experiment: Cytotoxicity against human GES1 cells assessed as inhibition of cell growth at measured after 72 hrs by SRB assay; assay type: cell-based; settings: ges1, 72 h
# A549 = experiment: Antiproliferative activity against human A549 cells assessed as inhibition of cell growth at measured after 72 hrs by SRB assay; assay type: functional
# EJ = experiment: Antiproliferative activity against human EJ cells assessed as inhibition of cell growth at measured after 72 hrs by SRB assay; assay type: functional
Structure (SMILES),inhibition at 10 µM (MGC-803 [1]) [%],other results
Cc1cc(Nc2cc(-c3ccccc3)[nH]n2)n2nc(SCc3nc4ccccc4[nH]3)nc2n1,78.4,–
O=C(/C=C/c1cccc(Br)n1)c1ccc(Nc2c3c(nc4ncnn24)CCC3)cc1,49.9,–
O=C(/C=C/c1cccc(Br)n1)c1ccc(Nc2cc(-c3ccccc3)nc3nc(SCc4ccccc4)nn23)cc1,38.3,–
Cc1cc(Nc2ccc(C(=O)/C=C/c3cccc(Br)n3)cc2)n2nc(SCc3ccccc3[N+](=O)[O-])nc2n1,92.3,–
C#CCSc1nc2nc(-c3ccccc3)cc(Nc3ccc(C(=O)/C=C/c4cccc(Br)n4)cc3)n2n1,56.3,–
CCc1cc(Nc2ccc(C(=O)/C=C/c3cccc(Br)n3)cc2)n2nc(SCc3ccccc3)nc2n1,63,–
Cc1cc(Nc2ccc(C(=O)/C=C/c3cccc(Br)n3)cc2)n2nc(SCc3ccc(F)cc3)nc2n1,93.3,–
Cc1cc(Nc2ccc(C(=O)/C=C/c3cccc(Br)n3)cc2)n2nc(SCc3ccc(Cl)cc3)nc2n1,90.2,–
Cc1cc(Nc2ccccc2)n2nc(SCc3nc4ccccc4[nH]3)nc2n1,22.4,–
Cc1cc(Nc2ccc(C(=O)/C=C/c3ccccc3)cc2)n2nc(SCc3nc4ccccc4[nH]3)nc2n1,94.5,–
Cc1cc(Nc2ccc(C(=O)/C=C/c3cccc(Br)n3)cc2)n2nc(SCCCc3ccccc3)nc2n1,76.7,–
Cc1cc(Nc2ccc(C(=O)/C=C/c3cccc(Br)n3)cc2)n2nc(SCc3ccccc3)nc2n1,90.2,–
C#CCSc1nc2nc(C)cc(Nc3ccc(C(=O)/C=C/c4cccc(Br)n4)cc3)n2n1,94.4,–
Cc1nc2nc(SCc3ccc(Cl)cc3)nn2c(Nc2ccc(C(=O)/C=C/c3cccc(Br)n3)cc2)c1C,72.5,–
Cc1cc(Nc2ccc(N3CCN(C)CC3)cc2)n2nc(SCc3nc4ccccc4[nH]3)nc2n1,78.1,–
O=c1[nH]cc(F)c(=O)[nH]1 [FLUOROURACIL],–,GI50 (MGC-803 [2]): Active; GI50 (HGC-27): Active; GI50 (SGC-7901): Active; GI50 (BGC-823): Active; GI50 (MKN-45): Active; Activity (GES1): Toxic; GI50 (A549): Active; GI50 (EJ): Active
Cc1cc(Nc2ccc(C(=O)/C=C/c3ccc(Br)cn3)cc2)n2nc(SCc3nc4ccccc4[nH]3)nc2n1,96.8,GI50 (MGC-803 [2]): 640 nM; GI50 (HGC-27): 640 nM; GI50 (SGC-7901): 640 nM; GI50 (BGC-823): 640 nM; GI50 (MKN-45): 640 nM; Activity (GES1): Non-Toxic; GI50 (A549): inactive; GI50 (EJ): inactive
Cc1cc(Nc2ccc(C(=O)/C=C/c3cccc(Br)n3)cc2)n2nc(SCc3ccc([N+](=O)[O-])cc3)nc2n1,91.6,–
Cc1cc(Nc2ccc(C(=O)/C=C/c3cccc(Br)n3)cc2)n2nc(SCc3ccc(Br)cc3)nc2n1,96.3,–
Cc1cc(Nc2ccc(C(=O)/C=C/c3cccc(Br)n3)cc2)n2ncnc2n1,58.4,–
Cc1cc(Nc2ccc(C(=O)/C=C/c3cccc(Br)n3)cc2)n2nc(SCc3ccc(C(F)(F)F)cc3)nc2n1,96.6,–
